Results: ChEMBL document CHEMBL2016543, “New tacrine-4-oxo-4H-chromene hybrids as multifunctional agents for the treatment of Alzheimer's disease, with cholinergic, antioxidant, and β-amyloid-reducing properties” (J Med Chem, 2012)
pIC50: −log10 of the molar value. Activity calls are given as the source filed them. No cut-off for these calls is given here. Starred links: 1 amine or outer side, 2 acyl side, 3 side chain; linkers in the order of their positions; H or OH if unused. Non-standard residues stand in square brackets, D forms with d. Residues, ends and D or L forms follow the SMILES beside them. LeuΨ(S-CHOHCH2)Ala = CC(C)C[C@H](N[*:1])[C@@H](O)C[C@@H](C)C(=O)[*:2]

Legend:
[1] = target: Cholinesterase (Equus caballus, UniProt P81908)
Description: (§1) Inhibition of horse serum BChE by Ellman's method

[2] = in vitro; conditions: PAMPA, pH 7.4
Description: Permeability of the compound in phosphate buffer at pH 7.4 by PAMPA

[3] = target: T1, Cholinesterase (Homo sapiens, UniProt P06276)
Description: Inhibition of human serum BChE by Ellman's method

[4] = target: T2, Acetylcholinesterase (Bos taurus, UniProt P23795)
T2 sequence (P23795 whole entry): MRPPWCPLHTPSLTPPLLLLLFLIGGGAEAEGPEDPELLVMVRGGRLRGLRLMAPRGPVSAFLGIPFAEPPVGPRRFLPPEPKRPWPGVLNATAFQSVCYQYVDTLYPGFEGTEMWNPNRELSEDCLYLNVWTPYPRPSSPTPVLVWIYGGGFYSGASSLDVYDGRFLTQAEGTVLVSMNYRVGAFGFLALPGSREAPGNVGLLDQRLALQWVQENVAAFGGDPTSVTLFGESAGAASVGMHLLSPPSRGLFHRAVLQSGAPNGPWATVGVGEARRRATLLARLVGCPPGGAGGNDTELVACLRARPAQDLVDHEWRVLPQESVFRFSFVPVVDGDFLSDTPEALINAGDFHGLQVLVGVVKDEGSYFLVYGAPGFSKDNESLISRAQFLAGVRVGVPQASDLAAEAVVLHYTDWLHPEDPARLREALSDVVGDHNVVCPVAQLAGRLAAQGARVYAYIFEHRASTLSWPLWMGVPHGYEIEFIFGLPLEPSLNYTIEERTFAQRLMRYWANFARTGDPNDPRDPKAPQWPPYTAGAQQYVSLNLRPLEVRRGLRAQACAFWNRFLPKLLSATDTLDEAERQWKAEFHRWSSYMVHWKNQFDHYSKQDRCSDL
Description: (§2) Inhibition of bovine erythrocytes AChE by Ellman's method

[5] = target: Acetylcholinesterase (Homo sapiens, UniProt P22303)
Description: Inhibition of human erythrocytes AChE by Ellman's method

[6] = target: T3, Beta-secretase 1 (Homo sapiens, UniProt P56817)
Description: Inhibition of human recombinant BChE using panvera peptide as substrate preincubated for 60 mins before substrate addition by FRET assay

[7] = target: T3, Beta-secretase 1; assay: Competitive inhibition of human recombinant […] using panvera peptide as substrate preincubated for 60 mins before substrate addition by FRET assay
[8] = target: Cholinesterase (Equus caballus) (UniProt P81908)
Description: as §1

[9] = target: T4, Acetylcholinesterase (Bos taurus) (UniProt P23795)
T4 sequence (whole entry): T2 sequence (P23795 whole entry)
Description: as §2

[10] = target: T1, Cholinesterase; assay: Ratio of tacrine IC50 to compound IC50 for human serum BChE

Chain of Cholinesterase (Equus caballus, UniProt P81908) (P81908 whole entry): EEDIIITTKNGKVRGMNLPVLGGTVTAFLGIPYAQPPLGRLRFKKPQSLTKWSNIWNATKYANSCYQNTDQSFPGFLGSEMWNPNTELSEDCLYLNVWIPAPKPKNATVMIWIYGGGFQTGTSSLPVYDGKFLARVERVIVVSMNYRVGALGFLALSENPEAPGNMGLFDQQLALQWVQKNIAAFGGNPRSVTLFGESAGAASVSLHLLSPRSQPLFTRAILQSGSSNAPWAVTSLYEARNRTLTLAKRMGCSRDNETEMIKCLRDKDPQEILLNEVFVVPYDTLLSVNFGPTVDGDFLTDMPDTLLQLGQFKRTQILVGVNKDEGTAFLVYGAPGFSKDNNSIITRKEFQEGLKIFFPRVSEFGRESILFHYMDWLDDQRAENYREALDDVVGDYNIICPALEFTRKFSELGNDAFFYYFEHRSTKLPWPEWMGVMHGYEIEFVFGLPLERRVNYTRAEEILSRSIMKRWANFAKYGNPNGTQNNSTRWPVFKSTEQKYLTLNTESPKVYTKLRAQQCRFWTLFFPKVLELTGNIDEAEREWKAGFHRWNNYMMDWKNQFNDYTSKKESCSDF
Chain of Acetylcholinesterase (Homo sapiens, UniProt P22303) (P22303 whole entry): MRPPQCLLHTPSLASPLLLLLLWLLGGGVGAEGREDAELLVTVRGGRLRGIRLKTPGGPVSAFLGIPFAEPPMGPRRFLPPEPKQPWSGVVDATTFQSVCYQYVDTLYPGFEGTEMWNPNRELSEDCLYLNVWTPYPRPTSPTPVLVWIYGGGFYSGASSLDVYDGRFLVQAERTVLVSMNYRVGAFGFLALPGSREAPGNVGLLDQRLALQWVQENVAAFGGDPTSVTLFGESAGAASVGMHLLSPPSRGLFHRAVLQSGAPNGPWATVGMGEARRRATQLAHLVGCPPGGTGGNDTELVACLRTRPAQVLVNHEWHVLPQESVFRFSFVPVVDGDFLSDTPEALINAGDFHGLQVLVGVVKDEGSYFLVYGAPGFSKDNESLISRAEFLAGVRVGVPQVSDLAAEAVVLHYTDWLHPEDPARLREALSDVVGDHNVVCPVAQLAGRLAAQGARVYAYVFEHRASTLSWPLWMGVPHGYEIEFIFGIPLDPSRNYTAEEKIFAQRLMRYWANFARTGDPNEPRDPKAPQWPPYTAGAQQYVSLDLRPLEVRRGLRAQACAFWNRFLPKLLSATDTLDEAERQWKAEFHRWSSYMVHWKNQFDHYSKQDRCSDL
T1 sequence (P06276 whole entry): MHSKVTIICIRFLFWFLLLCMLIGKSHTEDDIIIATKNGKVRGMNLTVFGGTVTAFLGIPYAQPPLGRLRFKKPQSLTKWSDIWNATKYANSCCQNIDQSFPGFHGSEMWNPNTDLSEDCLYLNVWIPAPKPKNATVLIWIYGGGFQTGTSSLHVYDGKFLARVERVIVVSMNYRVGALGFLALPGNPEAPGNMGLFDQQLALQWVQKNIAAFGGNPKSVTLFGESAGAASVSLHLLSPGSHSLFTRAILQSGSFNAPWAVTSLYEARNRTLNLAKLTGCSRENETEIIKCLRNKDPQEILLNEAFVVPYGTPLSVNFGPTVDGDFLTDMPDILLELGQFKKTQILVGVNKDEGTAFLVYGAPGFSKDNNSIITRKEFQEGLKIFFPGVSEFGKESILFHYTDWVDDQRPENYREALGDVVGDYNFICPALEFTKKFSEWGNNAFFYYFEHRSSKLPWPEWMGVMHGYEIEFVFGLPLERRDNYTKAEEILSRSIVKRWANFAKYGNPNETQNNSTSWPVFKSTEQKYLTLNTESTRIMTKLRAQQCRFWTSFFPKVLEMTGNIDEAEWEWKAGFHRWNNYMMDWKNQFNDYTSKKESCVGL
T3 sequence (P56817 whole entry): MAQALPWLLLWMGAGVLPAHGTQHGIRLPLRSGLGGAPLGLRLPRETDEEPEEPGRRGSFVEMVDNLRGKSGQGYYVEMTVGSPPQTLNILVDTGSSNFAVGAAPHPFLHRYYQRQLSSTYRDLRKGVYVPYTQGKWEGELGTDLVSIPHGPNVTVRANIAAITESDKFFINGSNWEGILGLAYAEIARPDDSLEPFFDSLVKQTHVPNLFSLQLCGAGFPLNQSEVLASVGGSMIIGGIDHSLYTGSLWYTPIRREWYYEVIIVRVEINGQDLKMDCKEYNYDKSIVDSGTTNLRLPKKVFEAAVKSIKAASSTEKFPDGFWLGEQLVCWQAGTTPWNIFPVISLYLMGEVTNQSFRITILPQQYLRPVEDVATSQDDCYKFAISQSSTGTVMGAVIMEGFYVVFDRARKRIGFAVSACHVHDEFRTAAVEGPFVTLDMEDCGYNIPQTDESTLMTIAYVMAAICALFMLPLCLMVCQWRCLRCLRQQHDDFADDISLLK
Chain of Cholinesterase (Equus caballus) (P81908 whole entry): as the sequence (P81908 whole entry) above

Row | SMILES | pIC50 [1] | Papp [2] [×10⁻⁶ cm/s] | pIC50 [3] | pIC50 [4] | pIC50 [5] | pIC50 [6] | Kic [7] [µM] | inhibition [8] | inhibition [9] | Ratio IC50 [10]
1 | COc1cc(O)c2c(=O)cc(C(=O)NCCCCCCCCCCNc3c4c(nc5cc(Cl)ccc35)CCCC4)oc2c1.Cl | 9.76 | 8.7 | 8.30 | 7.42 | 10.46 | – | – | – | – | –
2 | Cl.O=C(NCCCCCCCCCCNc1c2c(nc3ccccc13)CCCC2)c1cc(=O)c2cc(O)ccc2o1 | 9.00 | 23.1 | 8.82 | 7.12 | 8.10 | 5.55 | 0.82 | – | – | –
3 | O=C(NCCCCCCCCCCNc1c2c(nc3cc(Cl)cc(Cl)c13)CCCC2)c1cc(=O)c2c(O)cc(O)cc2o1 | 7.46 | – | – | 7.12 | – | – | – | – | – | –
4 | Cl.O=C(NCCCCCCCCCCNc1c2c(nc3cc(Cl)ccc13)CCCC2)c1cc(=O)c2c(O)cc(O)cc2o1 | 8.52 | 7.8 | 8.60 | 8.00 | 10.19 | – | – | – | – | –
5 | O=C(NCCCCCCCNc1c2c(nc3ccccc13)CCCC2)c1cc(=O)c2ccccc2o1 | 8.76 | – | – | 7.00 | – | – | – | – | – | –
6 | O=c1cc(-c2ccc(O)cc2)oc2cc(O)cc(O)c12 [APIGENIN] | – | – | – | – | – | 4.41 | 11.3 | – | – | –
7 | COc1ccc2oc(C(=O)NCCCCCCCCCCNc3c4c(nc5cc(Cl)cc(Cl)c35)CCCC4)cc(=O)c2c1 | 8.12 | – | – | 6.26 | – | – | – | – | – | –
8 | O=C(NCCCCCCCCCCCCNc1c2c(nc3ccccc13)CCCC2)c1cc(=O)c2ccccc2o1 | 9.60 | – | – | 6.82 | – | – | – | – | – | –
9 | COc1cc2oc(C(=O)NCCCCCCCCCCNc3c4c(nc5ccccc35)CCCC4)cc(=O)c2cc1OC.Cl | 9.26 | 15 | 7.82 | 7.07 | 8.74 | 5.52 | 0.88 | – | – | –
10 | COc1cc(O)c2c(=O)cc(C(=O)NCCCCCCCCCCNc3c4c(nc5cc(Cl)cc(Cl)c35)CCCC4)oc2c1 | 7.46 | – | – | 7.10 | – | – | – | – | – | –
11 | COc1cc2oc(C(=O)NCCCCCCCCCCNc3c4c(nc5cc(Cl)cc(Cl)c35)CCCC4)cc(=O)c2cc1OC | 7.00 | – | – | 6.76 | – | – | – | – | – | –
12 | COc1cc(O)c2c(=O)cc(C(=O)NCCCCCCCCCCNc3c4c(nc5ccccc35)CCCC4)oc2c1.Cl | 8.70 | 10.6 | 9.00 | 6.60 | 9.00 | 5.54 | 0.85 | – | – | –
13 | COc1cc2oc(C(=O)NCCCCCCCCCCNc3c4c(nc5cc(Cl)ccc35)CCCC4)cc(=O)c2cc1OC.Cl | 9.07 | 7.4 | 7.30 | 8.19 | 9.70 | – | – | – | – | –
14 | COc1cc(OC)c2c(=O)cc(C(=O)NCCCCCCCCCCNc3c4c(nc5cc(Cl)cc(Cl)c35)CCCC4)oc2c1 | 9.12 | – | – | 6.82 | – | – | – | – | – | –
15 | O=C(NCCCCCCCCCCNc1c2c(nc3cc(Cl)cc(Cl)c13)CCCC2)c1cc(=O)c2cc(O)c(O)cc2o1 | 7.06 | – | – | 7.05 | – | – | – | – | – | –
16 | O=C(NCCCCCCCCNc1c2c(nc3ccccc13)CCCC2)c1cc(=O)c2ccccc2o1 | 9.30 | – | – | 6.82 | – | – | – | – | – | –

Row | SMILES | pIC50 [1] | Papp [2] [×10⁻⁶ cm/s] | pIC50 [3] | pIC50 [4] | pIC50 [5] | pIC50 [6] | Kic [7] [µM] | inhibition [8] | inhibition [9] | Ratio IC50 [10]
17 | O=C(O)c1cc(=O)c2ccccc2o1 | – | – | – | – | – | – | – | inactive | inactive | –
18 | O=C(NCCCCCCCCCCNc1c2c(nc3cc(Cl)cc(Cl)c13)CCCC2)c1cc(=O)c2ccccc2o1 | 7.00 | – | – | 6.00 | – | – | – | – | – | –
19 | O=C(NCCCCCCCCCNc1c2c(nc3ccccc13)CCCC2)c1cc(=O)c2ccccc2o1 | 9.24 | – | – | 6.90 | – | – | – | – | – | –
20 | Cl.O=C(NCCCCCCCCCCNc1c2c(nc3cc(Cl)ccc13)CCCC2)c1cc(=O)c2ccccc2o1 | 9.74 | 7.1 | 10.10 | 8.30 | 9.52 | 4.65 | 6.58 | – | – | –
21 | Cl.O=C(NCCCCCCCCCCNc1c2c(nc3ccccc13)CCCC2)c1cc(=O)c2cc(O)c(O)cc2o1 | 8.10 | 6.3 | 7.52 | 6.52 | 8.19 | – | – | – | – | –
22 | COc1cc(OC)c2c(=O)cc(C(=O)NCCCCCCCCCCNc3c4c(nc5cc(Cl)ccc35)CCCC4)oc2c1.Cl | 9.00 | 10.7 | 10.00 | 7.30 | 9.46 | – | – | – | – | –
23 | Cl.O=C(NCCCCCCCCCCNc1c2c(nc3ccccc13)CCCC2)c1cc(=O)c2c(O)cc(O)cc2o1 | 9.46 | 13.1 | 9.10 | 6.30 | 8.64 | 5.44 | 1.06 | – | – | –
24 | COc1cc(OC)c2c(=O)cc(C(=O)NCCCCCCCCCCNc3c4c(nc5ccccc35)CCCC4)oc2c1.Cl | 9.49 | 14.7 | 10.00 | 7.00 | 8.64 | 5.68 | 0.62 | – | – | –
25 | Cl.O=C(NCCCCCCCCCCNc1c2c(nc3cc(Cl)ccc13)CCCC2)c1cc(=O)c2cc(O)c(O)cc2o1 | 7.55 | 5.3 | 7.02 | 7.76 | 10.05 | 4.87 | 3.99 | – | – | –
26 | Cl.O=C(NCCCCCCCCCCNc1c2c(nc3ccccc13)CCCC2)c1cc(=O)c2ccccc2o1 | 9.74 | 9.1 | 9.82 | 7.12 | 7.76 | – | – | – | – | –
27 | COc1ccc2oc(C(=O)NCCCCCCCCCCNc3c4c(nc5cc(Cl)ccc35)CCCC4)cc(=O)c2c1.Cl | 9.37 | 7.5 | 10.00 | 8.30 | 10.00 | 4.84 | 4.23 | – | – | –
28 | O=C(NCCCCCCCCCCNc1c2c(nc3cc(Cl)cc(Cl)c13)CCCC2)c1cc(=O)c2cc(O)ccc2o1 | 7.76 | – | – | 6.46 | – | – | – | – | – | –
29 | Cl.O=C(NCCCCCCCCCCNc1c2c(nc3cc(Cl)ccc13)CCCC2)c1cc(=O)c2cc(O)ccc2o1 | 8.46 | 11.5 | 8.82 | 7.10 | 9.00 | – | – | – | – | –
30 | CC(C)C[C@H](NC(=O)[C@H](CC(N)=O)NC(=O)[C@@H](NC(=O)[C@@H](N)CC(=O)O)C(C)C)[C@@H](O)C[C@@H](C)C(=O)N[C@@H](C)C(=O)N[C@@H](CC(=O)O)C(=O)N[C@@H](Cc1ccccc1)C(=O)O (H-DVN[LeuΨ(S-CHOHCH2)Ala]ADF-OH) | – | – | – | – | – | 7.48 | 0.0097 | – | – | –
31 | COc1ccc2oc(C(=O)NCCCCCCCCCCNc3c4c(nc5ccccc35)CCCC4)cc(=O)c2c1.Cl | 9.49 | 14.9 | 10.42 | 7.46 | 9.11 | – | – | – | – | 1050
